Target: T1, AR (Homo sapiens, UniProt P10275)
T1 construct: endogenous in cells; host or cells: VCaP cells
T1 sequence (P10275 1-920): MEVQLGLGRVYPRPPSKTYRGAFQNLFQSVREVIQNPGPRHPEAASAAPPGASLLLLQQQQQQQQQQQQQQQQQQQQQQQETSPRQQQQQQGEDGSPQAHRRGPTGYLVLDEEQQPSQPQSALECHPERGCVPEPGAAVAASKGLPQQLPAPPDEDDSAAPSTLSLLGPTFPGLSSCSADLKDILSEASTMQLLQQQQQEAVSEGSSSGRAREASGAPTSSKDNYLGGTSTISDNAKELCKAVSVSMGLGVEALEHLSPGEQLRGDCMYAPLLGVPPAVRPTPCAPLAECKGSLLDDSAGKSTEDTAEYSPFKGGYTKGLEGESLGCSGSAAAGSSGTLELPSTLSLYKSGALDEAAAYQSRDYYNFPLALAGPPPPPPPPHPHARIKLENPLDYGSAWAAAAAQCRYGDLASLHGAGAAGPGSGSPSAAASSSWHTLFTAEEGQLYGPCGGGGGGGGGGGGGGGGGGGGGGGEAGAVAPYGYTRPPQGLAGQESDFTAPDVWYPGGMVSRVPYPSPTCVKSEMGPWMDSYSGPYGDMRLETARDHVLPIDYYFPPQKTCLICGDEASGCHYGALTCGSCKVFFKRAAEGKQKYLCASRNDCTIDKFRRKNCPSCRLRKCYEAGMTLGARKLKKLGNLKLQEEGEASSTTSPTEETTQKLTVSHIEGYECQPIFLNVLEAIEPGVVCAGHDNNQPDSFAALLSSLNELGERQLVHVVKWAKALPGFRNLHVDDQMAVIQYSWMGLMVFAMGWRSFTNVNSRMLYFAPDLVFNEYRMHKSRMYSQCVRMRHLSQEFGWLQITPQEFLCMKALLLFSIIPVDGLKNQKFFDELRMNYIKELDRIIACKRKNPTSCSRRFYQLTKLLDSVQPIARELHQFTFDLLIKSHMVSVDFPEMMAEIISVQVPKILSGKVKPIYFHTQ
Test: VCAP AR Degradation Assay
Assay type: cell-based
Conditions: VCaP cells, 24 h, AR ELISA; for DC50: concentration of compound when AR level = 50% of DMSO control (50% AR degradation); for Y: lowest measured AR level normalized to DMSO control (AR degradation efficiency)
Experimental: VCAP AR Degradation Assay. Test compounds were pre-dispensed into a Corning CellBind 96-well clear bottom plate (Cat #3300) using an acoustic dispenser to make a 10-point concentration series at 1:3 dilution for each compound. The final top concentration of each compound was 5 μM. DMSO at a final concentration of 0.1% was used as a control. VCaP cells cultured in DMEM with 8% fetal bovine serum (FBS) were seeded at 50K cells per well in a 200 μL volume into the compound plate and incubated at 37° C. in a CO2 incubator for 24 h. The medium was carefully removed from the cells and the plate was placed on ice. […] ice-cold 1× cell lysis buffer from Cell Signaling Technologies (Cat #9803) was added to each well of the cells and the plate was incubated at 4° C. on a shaker for 1 h. Fifteen μL of cell lysate was used for AR ELISA detection using a PathScan Total Sandwich AR ELISA kit (Cell Signaling Technology, Cat #12580). AR levels in compound-treated wells were normalized to that of DMSO control and expressed as percent of control (PoC) (y). A Four Parameter Logistic Model (Sigmoidal Dose-Response Model) was used to determine the compound's DC50, and EC50, using the following equation: y=(A+((B−A)/(1+((C/x)^D)))) • A=YMin (lowest AR level normalized to DMSO control in response to compound treatment, as determined by curve fit) • B=YMax (maximum AR level as determined by curve fit) • C=EC50 • D=Hill Slope • x=compound concentration • EC50=the concentration of compound when y=[…] • DC50=the concentration of the compound when y=50% of DMSO control (50% AR degradation) • y=AR protein level normalized to DMSO control
The lowest measured AR level normalized to DMSO control in response to compound treatment, termed Y value, was used to characterize the compound-mediated AR degradation efficiency.

For `Cn1nc(N2CCC(=O)NC2=O)c2cccc(NC(=O)CN3CCN(CCCO[C@H]4CC[C@H](N5C(=S)N(c6cnc(C#N)c(C(F)(F)F)c6)C(=O)C5(C)C)CC4)C[C@@H]3C(F)(F)F)c21` [Cmpd 24, 2-((R)-4-(3-(((trans)-4-(3-(6-cyano-5-(trifluoromethyl)pyridin-3-yl)-5,5-dimethyl-4-oxo-2-thioxoimidazolidin-1-yl)cyclohexyl)oxy)propyl)-2-(trifluoromethyl)piperazin-1-yl)-N-(3-(2,4-dioxotetrahydropyrimidin-1(2H)-yl)-1-methyl-1H-indazol-7-yl)acetamide], the DC50 was at most 2 nM and the Y was “* (0<Y≤20%)”.

For `C[C@@H]1C[C@@H](CCOC2CCC(N3C(=S)N(c4cnc(C#N)c(C(F)(F)F)c4)C(=O)C3(C)C)CC2)C[C@H](C)N1CC(=O)Nc1cccc2c(N3CCC(=O)NC3=O)nn(C)c12` (stereo partly drawn) [Cmpd 25, 2-((2R,4s,6S)-4-(2-(((trans)-4-(3-(6-Cyano-5-(trifluoromethyl)pyridin-3-yl)-5,5-dimethyl-4-oxo-2-thioxoimidazolidin-1-yl)cyclohexyl)oxy)ethyl)-2,6-dimethylpiperidin-1-yl)-N-(3-(2,4-dioxotetrahydropyrimidin-1(2H)-yl)-1-methyl-1H-indazol-7-yl)acetamide], the DC50 was at most 2 nM and the Y was “* (0<Y≤20%)”.

For `Cn1nc(N2CCC(=O)NC2=O)c2cccc(NC(=O)CN3CCN(CCCO[C@H]4CC[C@H](N5C(=S)N(c6ccc(C#N)c(C(F)(F)F)c6)C(=O)C5(C)C)CC4)C[C@@H]3C(F)(F)F)c21` [Cmpd 26, 2-((R)-4-(3-(((trans)-4-(3-(4-Cyano-3-(trifluoromethyl)phenyl)-5,5-dimethyl-4-oxo-2-thioxoimidazolidin-1-yl)cyclohexyl)oxy)propyl)-2-(trifluoromethyl)piperazin-1-yl)-N-(3-(2,4-dioxotetrahydropyrimidin-1(2H)-yl)-1-methyl-1H-indazol-7-yl)acetamide], the DC50 was 2 to 10 nM and the Y was “* (0<Y≤20%)”.

In the case of `Cn1nc(N2CCC(=O)NC2=O)c2cccc(NC(=O)CN3CCN(CCO[C@H]4CC[C@H](N5C(=S)N(c6cnc(C#N)c(C(F)(F)F)c6)C(=O)C5(C)C)CC4)C[C@@H]3C(F)(F)F)c21` [Cmpd 27, 2-((R)-4-(2-(((trans)-4-(3-(6-Cyano-5-(trifluoromethyl)pyridin-3-yl)-5,5-dimethyl-4-oxo-2-thioxoimidazolidin-1-yl)cyclohexyl)oxy)ethyl)-2-(trifluoromethyl)piperazin-1-yl)-N-(3-(2,4-dioxotetrahydropyrimidin-1(2H)-yl)-1-methyl-1H-indazol-7-yl)acetamide], the DC50 is reported as at most 2 nM and the Y is reported as “** (20%<Y≤%)”.

In the case of `C[C@@H]1C[C@H](CCO[C@H]2CC[C@H](N3C(=S)N(c4cnc(C#N)c(C(F)(F)F)c4)C(=O)C3(C)C)CC2)C[C@H](C)N1CC(=O)Nc1cccc2c(N3CCC(=O)NC3=O)nn(C)c12` [Cmpd 28, 2-((2R,4r,6S)-4-(2-(((trans)-4-(3-(6-Cyano-5-(trifluoromethyl)pyridin-3-yl)-5,5-dimethyl-4-oxo-2-thioxoimidazolidin-1-yl)cyclohexyl)oxy)ethyl)-2,6-dimethylpiperidin-1-yl)-N-(3-(2,4-dioxotetrahydropyrimidin-1(2H)-yl)-1-methyl-1H-indazol-7-yl)acetamide], the DC50 is reported as at most 2 nM and the Y is reported as “* (0<Y≤20%)”.

With `C[C@@H]1C[C@H](OCCC[C@H]2CC[C@H](N3C(=S)N(c4ccc(C#N)c(C(F)(F)F)c4)C(=O)C3(C)C)CC2)C[C@H](C)N1CC(=O)Nc1cccc2c(N3CCC(=O)NC3=O)nn(C)c12` [Cmpd 29, 2-((2R,4r,6S)-4-(3-((trans)-4-(3-(4-Cyano-3-(trifluoromethyl)phenyl)-5,5-dimethyl-4-oxo-2-thioxoimidazolidin-1-yl)cyclohexyl)propoxy)-2,6-dimethylpiperidin-1-yl)-N-(3-(2,4-dioxotetrahydropyrimidin-1(2H)-yl)-1-methyl-1H-indazol-7-yl)acetamide] the DC50 was 10 to 100 nM and the Y was “* (0<Y≤20%)”.

In the case of `C[C@@H]1C[C@H](OCCC[C@H]2CC[C@H](N3C(=S)N(c4cnc(C#N)c(C(F)(F)F)c4)C(=O)C3(C)C)CC2)C[C@H](C)N1CC(=O)Nc1cccc2c(N3CCC(=O)NC3=O)nn(C)c12` [Cmpd 30, 2-((2R,4r,6S)-4-(3-((trans)-4-(3-(6-Cyano-5-(trifluoromethyl)pyridin-3-yl)-5,5-dimethyl-4-oxo-2-thioxoimidazolidin-1-yl)cyclohexyl)propoxy)-2,6-dimethylpiperidin-1-yl)-N-(3-(2,4-dioxotetrahydropyrimidin-1(2H)-yl)-1-methyl-1H-indazol-7-yl)acetamide], the DC50 is reported as 2 to 10 nM and the Y is reported as “* (0<Y≤20%)”.

`C[C@@H]1C[C@H](OCC[C@H]2CC[C@H](N3C(=S)N(c4ccc(C#N)c(C(F)(F)F)c4)C(=O)C3(C)C)CC2)C[C@H](C)N1CC(=O)Nc1cccc2c(N3CCC(=O)NC3=O)nn(C)c12` [Cmpd 31, 2-((2R,4r,6S)-4-(2-((trans)-4-(3-(4-Cyano-3-(trifluoromethyl)phenyl)-5,5-dimethyl-4-oxo-2-thioxoimidazolidin-1-yl)cyclohexyl)ethoxy)-2,6-dimethylpiperidin-1-yl)-N-(3-(2,4-dioxotetrahydropyrimidin-1(2H)-yl)-1-methyl-1H-indazol-7-yl)acetamide] was tested, and the DC50 was 2 to 10 nM and the Y was “** (20%<Y≤%)”.

In the case of `C[C@@H]1C[C@H](OCC[C@H]2CC[C@H](N3C(=S)N(c4cnc(C#N)c(C(F)(F)F)c4)C(=O)C3(C)C)CC2)C[C@H](C)N1CC(=O)Nc1cccc2c(N3CCC(=O)NC3=O)nn(C)c12` [Cmpd 32, 2-((2R,4r,6S)-4-(2-((trans)-4-(3-(6-Cyano-5-(trifluoromethyl)pyridin-3-yl)-5,5-dimethyl-4-oxo-2-thioxoimidazolidin-1-yl)cyclohexyl)ethoxy)-2,6-dimethylpiperidin-1-yl)-N-(3-(2,4-dioxotetrahydropyrimidin-1(2H)-yl)-1-methyl-1H-indazol-7-yl)acetamide], the DC50 is reported as 2 to 10 nM and the Y is reported as “* (0<Y≤20%)”.

`C[C@@H]1C[C@H](OCCO[C@H]2CC[C@H](N3C(=S)N(c4ccc(C#N)c(C(F)(F)F)c4)C(=O)C3(C)C)CC2)C[C@H](C)N1CC(=O)Nc1cccc2c(N3CCC(=O)NC3=O)nn(C)c12` [Cmpd 33, 2-((2R,4r,6S)-4-(2-(((trans)-4-(3-(4-Cyano-3-(trifluoromethyl)phenyl)-5,5-dimethyl-4-oxo-2-thioxoimidazolidin-1-yl)cyclohexyl)oxy)ethoxy)-2,6-dimethylpiperidin-1-yl)-N-(3-(2,4-dioxotetrahydropyrimidin-1(2H)-yl)-1-methyl-1H-indazol-7-yl)acetamide] was tested, and the DC50 was 2 to 10 nM and the Y was “** (20%<Y≤%)”.

In the case of `C[C@@H]1C[C@H](OCCO[C@H]2CC[C@H](N3C(=S)N(c4cnc(C#N)c(C(F)(F)F)c4)C(=O)C3(C)C)CC2)C[C@H](C)N1CC(=O)Nc1cccc2c(N3CCC(=O)NC3=O)nn(C)c12` [Cmpd 34, 2-((2R,4r,6S)-4-(2-(((trans)-4-(3-(6-Cyano-5-(trifluoromethyl)pyridin-3-yl)-5,5-dimethyl-4-oxo-2-thioxoimidazolidin-1-yl)cyclohexyl)oxy)ethoxy)-2,6-dimethylpiperidin-1-yl)-N-(3-(2,4-dioxotetrahydropyrimidin-1(2H)-yl)-1-methyl-1H-indazol-7-yl)acetamide], the DC50 is reported as at most 2 nM and the Y is reported as “** (20%<Y≤%)”.

Source: patent publication US11560371B2, “Cereblon binding compounds, compositions thereof, and methods of treatment therewith” (Celgene Corporation, priority 2020, dated 2023)
